Data reported in US11813262B2, “Compositions and methods to increase muscular strength” (priority 2017, dated 2023).

Legend:
[1] = tested on: 3D engineered skeletal muscle tissue from C2Cl2 myoblasts; experiment: Contractility of 3D engineered optogenetic skeletal muscle tissue (displacement of compliant cantilever); assay type: cell-based, mouse; settings: for effect on muscle contraction of 3D muscle: other actin disrupters
From the text: An in vitro optogenetic skeletal muscle micro-tissue as a model system (e.g., engineered skeletal muscle) such as the one shown in FIG. 1A-1E was used. Briefly, a sacrificial molding technique was used to form the muscle tissue on the cantilevers. A steel rod was used to mold a cylindrical hole in solidified gelatin. The steel rod was then removed and myoblasts in an extracellular matrix material was inserted in its place. The myoblasts were then differentiated in place to form a differentiated muscle tissue. With this system, a range of actin inhibitors were tested (e.g., Cytochalasin D (Zygosporin A), Latrunculin A, SMIFH2, CK666 and Jasplakinode) including ones that bind to the barbed end of F-actin, ones that sequester G-actin monomers and inhibitors of formins, roughly a 100% increase in muscle strength was observed (FIGS. 2A-2B and FIGS. 3A-3B) and a 300% increase in external work performed was observed, within 2 hours of F-actin disruption. Additionally, disruption of the dynamic F-actin cytoskeleton using small molecule actin dynamics inhibitors led to a persistent 2-fold improvement in force (e.g., muscle performance or work) compared to exercising (FIG. 4A-4E). Actin disruption improved mouse muscle explant force, a model system that is very close to human muscle (FIG. 5A-5C).
(§1) Fabrication of a 3D engineered skeletal muscle tissue by differentiating C2Cl2 myoblasts mixed in a fibrin/matrigel extracellular matrix cast in to a muscle-like cylindrical shape using a sacrificial molding technique. The muscle tissue is anchored to a stiff cantilever and a more compliant cantilever. Optogenetic stimulation of the muscle tissue lead to muscle contraction which was quantified through measurable displacements of the compliant cantilever. ZygoA treatment of the 3D muscle tissues lead to a significant improvement in contraction relative to DMSO treated controls, reaching ˜2-fold increase in 2 hours.

F-actin [2] = experiment: Phalloidin stain of F-actin in mouse EDL muscle explants; settings: 3 uM, 2 hours of treatment, vs DMSO
[3] = tested on: differentiated C2Cl2 myotubes; experiment: Active contraction of differentiated optogenetic C2Cl2 myotubes (Index of Movement); assay type: cell-based, mouse
From the text: as §1

F-actin [4] = experiment: Live confocal time-lapse microscopy of Sir-Actin stained myotubes; assay type: cell-based; settings: 0.3 uM
Procedure: However, some of the background non-sarcomeric F-actin was depolymerized as also quantified in (FIG. 10D). Myotubes with an immature sarcomeric structure were depolymerized ˜5 hours after ZygoA treatment (FIG. 10C). Poorly differentiated, myotubes without visible sarcomeric structures had rupturing F-actin cables and significant actin upon actin disruption with ZygoA. […] Sir-Actin intensity before and 12 hours after treatment along sarcomeric F-actin in mature myotubes (FIG. 10D-10E).

F-actin [5] = experiment: Fluorescence recovery after photobleaching of GFP-tagged G-actin in C2Cl2 myotubes; assay type: cell-based, mouse
From the text: The fluorescence recovery in differentiated myotubes was affected by 3 different events: diffusion, dynamic F-actin turnover and stable F-actin turnover. DMSO treated tissues recovered faster than ZygoA treated tissues. […] These myotubes were excluded from the computation. Fluorescence recovery at different timescales (seconds, minutes, tens of minutes) reflected different molecular processes (diffusion of monomer, dynamic F-actin turnover, stable F-actin turnover). […] Changes in dynamic and stable F-actin fractions were statistically significant (FIG. 11D-11E).

[6] = tested on: mouse hindlimb extensor digitorum longus (EDL) muscle explant; experiment: Contractility of mouse hindlimb EDL muscle explant on cantilevers under electrical stimulation
From the text: The hindlimb extensor digitorum longus (EDL) muscle of a euthanized 2-3 month old male mouse was dissected. The EDL muscle was anchored between two kapton cantilevers using a cyanoacrylate glue. One of the cantilevers was movable whose position could be adjusted to change the resting tension of the muscle. The cantilever was moved to the point where maximal force was produced and was held at this point for the rest of the experiment. (FIG. 7A-7B).
The two colored envelopes around the curves representing the mean are the 68% and 95% confidence interval envelopes (FIG. 7D). ZygoA treated tissues that responded the best, with an average of ˜2× transient increase in contraction after treatment, followed by decline (FIG. 7E). […] Modeling the decline associated with rigor mortis as an exponential decay estimated the “true” strength change after treatment. The muscle strength was compared of tissue after treatment extrapolated to time t=0 and represent this as a strength ratio relative to the actual strength at t=0. ZygoA treated tissues show a ˜2.5-fold increase in median strength ratio relative to DMSO treated controls.

[7] = poorly differentiated myotubes without visible sarcomeric structures

With `O=C1NC(=S)N(c2cccc(Br)c2)C(=O)C1=Cc1ccco1` [SMIFH2, 1-(3-Bromophenyl)-5-(2-furylmethylene)-2-thioxo-hexahydropyrimidine-4,6-dione] the “effect on muscle contraction of 3D muscle” value [1] was “improved muscle contraction”.

`C=C1[C@@H](C)[C@H]2[C@H](Cc3ccccc3)NC(=O)[C@]23[C@H](OC(C)=O)/C=C/[C@@](C)(O)C(=O)[C@@H](C)C/C=C/[C@H]3[C@@H]1O` [ZygoA, Zygosporin A] was tested, and the “longer term effect on active contraction” value ([1]; 0.3 μM, long term (1 day)) was “no significant effect”, the “muscle contraction after pulsed treatment compared to DMSO treated controls” value ([1]; 3 uM for 2 hours followed by washout, days after washout) was “sustained improvement in muscle contraction” and the “short term increase in force (active contraction)” value ([1]; 3 μM, 2 hours of exposure) was 2.6 ×. The “decrease in contraction compared to the peak achieved 2 hours after exposure” value ([1]; 3 μM, longer term (1 day)) was ~50%, the “increase in contraction relative to DMSO treated controls” value ([1]; 3D muscle tissues, in 2 hours) was ~2 fold and the “effect of washout on contraction” value ([1]; washout of high dose 3 uM) was “recovery of the force to the level of the peak”. The “effect of washout on contraction” value ([1]; washout of low dose 0.3 uM) was “slight decrease in contraction (not significant)”, the “F-actin disruption in muscle explants (phalloidin stain)” value (F-actin [2]) was “disrupted F-actin” and the “active contraction (Index of Movement, active contractile displacement)” value [3] was “significant improvement in active contraction”. For the same molecule, the “time to depolymerization of myotubes with immature sarcomeric structure” value (F-actin [4]) was ~5 h, the “sarcomeric F-actin structure in mature myotubes after treatment” value (F-actin [4]; 12 hours after treatment, mature sarcomeric structure) was “still displayed the periodic sarcomeric structure” and the “average F-actin filament length” value (F-actin [4]; [7]) was “decrease in the average F-actin filament length”. For the same molecule, the “number of F-actin filaments” value (F-actin [4]; [7]) was “increase in number of F-actin filaments”, the actin turnover time (F-actin [5]; FRAP, vs DMSO) was “slowed the actin turnover time in a dose-dependent manner” and the “amount of stable F-actin” value (F-actin [5]; higher dose 3 uM) was “reduces the amount of stable F-actin”. For the same molecule, the “amount of dynamic F-actin” value (F-actin [5]; low dose 0.3 uM) was “reduced the amount of dynamic F-actin”, the “transient increase in contraction after treatment” value ([6]; ZygoA treated tissues that responded the best, average, treatment at t=60 mins) was ~2 × and the “increase in median strength ratio relative to DMSO treated controls” value ([6]; strength after treatment extrapolated to t=0 (exponential decay model of rigor mortis) relative to actual strength at t=0) was ~2.5 fold. The “contractility changes of treated tissues vs DMSO” value ([6]; treatment at t=60 mins, before rigor mortis decline) was “transient improvement”.

With `C/C1=C\[C@H](C)C[C@H](C)OC(=O)C[C@H](c2ccc(O)cc2)NC(=O)[C@@H](Cc2c(Br)[nH]c3ccccc23)N(C)C(=O)[C@H](C)NC(=O)[C@@H](C)C1` [jasplakinolide] the “active contractility after F-actin stabilization” value [1] was “gradual decrease in active contractility”.

With `C/C1=C/C(=O)O[C@@H]2C[C@@H](CC[C@H](C)/C=C\C=C\CC1)O[C@@](O)([C@@H]1CSC(=O)N1)C2` [Latrunculin A] the “effect on muscle contraction of 3D muscle” value [1] was “improved muscle contraction”.
